Calls of active or inactive are those of the source. The calls are words filed in the database; no cut-off is given here.
Experiments:
A549 [1] = assay: Induction of cell death in human A549 cells assessed as vanished mitochondrial cristae at 10 nM for 12 hrs by TEM analysis; type: functional, cell-based
HeLa = assay: Antiproliferative activity against human HeLa cells assessed as cell viability incubated for 48 hrs by MTT assay; type: functional, cell-based
HCT-8 [2] = assay: Antiproliferative activity against human HCT-8 cells assessed as cell viability incubated for 48 hrs by MTT assay; type: functional, cell-based; details: HCT-8, 48 h
HCT-8 [3] = assay: Antiproliferative activity against human HCT-8 cells assessed as inhibition of cell proliferation incubated for 2 hrs by CCK-8 assay; type: functional, cell-based; details: DDE = dose-dependent effect
MCF7 = assay: Antiproliferative activity against human MCF7 cells assessed as inhibition of cell proliferation incubated for 2 hrs by CCK-8 assay; type: functional, cell-based; details: DDE = dose-dependent effect
MGC-803 = assay: Antiproliferative activity against human MGC-803 cells assessed as inhibition of cell proliferation incubated for 2 hrs by CCK-8 assay; type: functional, cell-based; details: DDE = dose-dependent effect
SMMC-7721 = assay: Antiproliferative activity against human SMMC-7721 cells assessed as inhibition of cell proliferation incubated for 2 hrs by CCK-8 assay; type: functional, cell-based; details: DDE = dose-dependent effect
[4] = Cytotoxicity against HUVEC cells assessed as reduction in cell viability; type: toxicity, cell-based; details: human
[5] = Cytotoxicity against human MCF-10A cells assessed as reduction in cell viability; type: toxicity, cell-based
[6] = Selectivity ratio of IC50 for cytotoxicity against HUVEC cells assessed as reduction in cell viability to IC50 for cytotoxicity against human A549 cells assessed as reduction in cell viability; type: toxicity, cell-based; details: HUVEC cells versus A549 cells
A549 [7] = assay: Antiproliferative activity against human adriamycin-resistant A549/ADR cells assessed as cell viability incubated for 48 hrs by MTT assay; type: functional, cell-based; details: A549, 48 h
HCT-8 [8] = assay: Antiproliferative activity against human vincristine-resistant HCT-8/VCR cells assessed as cell viability incubated for 48 hrs by MTT assay; type: functional, cell-based; details: HCT-8, 48 h
A2780 = assay: Antiproliferative activity against human paclitaxel-resistant A2780/TAX cells assessed as cell viability incubated for 48 hrs by MTT assay; type: functional, cell-based; details: A2780, 48 h
[9] = Resistance index, ratio of IC50 for antiproliferative activity against human paclitaxel-resistant A2780/TAX cells to IC50 for antiproliferative activity against human A2780 cells; type: functional
Tubulin = assay: Inhibition of tubulin polymerization (unknown origin) assessed as fluorescence intensity emission at 410 nm for 60 mins; type: protein-complex assay, Homo sapiens
Tubulin (Homo sapiens) [10] = molecular target: T1, Tubulin (Homo sapiens) (UniProt P68371+Q9H4B7+P0DPH7+P68366+Q13509+Q71U36+P04350+Q3ZCM7+P07437+P68363+Q9BQE3+Q6PEY2+Q13885+Q9BVA1+Q9BUF5); assay: Inhibition of [3H]colchicine binding to tubulin (unknown origin) at 0.075 uM by competitive binding assay relative to control; type: protein-complex assay
Tubulin (Homo sapiens) [11] = molecular target: T1, Tubulin (Homo sapiens); assay: Inhibition of [3H]colchicine binding to tubulin (unknown origin) at 5 uM by competitive binding assay relative to control; type: protein-complex assay
Tubulin (Homo sapiens) [12] = molecular target: T1, Tubulin (Homo sapiens); assay: Induction of microtubule disruption in human A549 cells assessed as shrunken spindle shaped microtubule structure at 5 to 20 uM incubated for 12 hrs by immunofluorescence based laser scanning confocal microscopic analysis; type: cell-based; details: dose 5-20 µM
A549 [13] = assay: Cell cycle arrest in human A549 cells assessed as downregulation of Cdc2 expression at 5 to 20 nM incubated for 24 to 48 hrs by Western blot analysis; type: functional, cell-based; details: dose 5-20 nM, time 24-48 hrs
A549 [14] = assay: Cell cycle arrest in human A549 cells assessed as downregulation of Cdc25C expression at 5 to 20 nM incubated for 24 to 48 hrs by Western blot analysis; type: functional, cell-based; details: dose 5-20 nM, time 24-48 hrs
[15] = Toxicity in human A549 cells xenografted in athymic nude BALB/c nude mouse assessed as morphological changes in kidney at 10 mg/kg, ip measured after 30 days by H and E staining based histological analysis; type: organism-based; details: in vivo, 720 h, time 30 day
A549 [16] = assay: Induction of apoptosis in human A549 cells assessed as early apoptotic cells at 200 nM after 24 hrs by annexin V-FITC/PI staining based flow cytometry analysis relative to control; type: functional
A549 [17] = assay: Induction of ferroptosis in human A549 cells assessed as cell swelling incubated for 24 hrs by CCK-8 assay; type: functional, cell-based
A549 [18] = assay: Induction of apoptosis in human A549 cells assessed as cell viability pretreated with ferroptosis inhibitor desferoxamine for 24 hrs followed by incubation with compound at 20 nM and measured after 48 hrs by CCK-8 assay; type: functional, cell-based
A549 [19] = assay: Induction of apoptosis in human A549 cells assessed as cell viability pretreated with ferroptosis inhibitor ferrostatin-1 for 24 hrs followed by incubation with compound at 20 nM and measured after 48 hrs by CCK-8 assay; type: functional, cell-based
A549 [20] = assay: Induction of cell death in human A549 cells assessed as increased mitochondrial membrane density at 10 nM for 12 hrs by TEM analysis; type: functional, cell-based
A549 [21] = assay: Induction of ferroptosis in human A549 cells assessed as depletion of GSH levels at 10 nM upto 12 hrs; type: functional, cell-based
[22] = molecular target: T2, Phospholipid hydroperoxide glutathione peroxidase GPX4 (Homo sapiens) (UniProt P36969); assay: Inhibition of GPX4 in human A549 cells assessed as decrease in GPX4 protein […] at 5 to 20 uM for 24 hrs by Western blotting analysis; type: cell-based; details: dose 5-20 µM
T2 sequence (whole entry): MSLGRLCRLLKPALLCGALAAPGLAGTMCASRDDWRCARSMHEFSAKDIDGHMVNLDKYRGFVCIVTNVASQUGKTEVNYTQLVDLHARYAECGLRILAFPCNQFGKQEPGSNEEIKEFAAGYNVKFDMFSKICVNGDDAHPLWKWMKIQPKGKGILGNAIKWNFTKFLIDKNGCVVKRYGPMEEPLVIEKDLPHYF

[23] = Acute toxicity in rat assessed as median lethal dose after at 175 to 550 mg/kg for 14 days; type: organism-based; details: in vivo, dose 175-550 mg/kg, time 14 day
[24] = AUC (0 to t) in ICR mouse at 1 mg/kg, iv single administration measured for 24 hrs post treatment by LC-MS/MS analysis; type: ADME, organism-based; details: in vivo
[25] = MRT in ICR mouse at 1 mg/kg, iv single administration measured for 24 hrs post treatment by LC-MS/MS analysis; type: ADME, organism-based; details: in vivo
[26] = Clearance in ICR mouse at 1 mg/kg, iv single administration measured for 24 hrs post treatment by LC-MS/MS analysis; type: ADME, organism-based; details: in vivo
A549 [27] = assay: In vivo antitumor activity against human A549 cells xenografted in athymic nude BALB/c mouse assessed as tumor weight at 10 mg/kg measured after 30 days (reference value: 1 gram); type: functional; details: time 30 day
[28] = Toxicity in athymic nude BALB/c mouse assessed as change in body weight at 10 mg/kg, ip measured for 30 days; type: organism-based; details: in vivo, 720 h, time 30 day
[29] = Toxicity in athymic nude BALB/c mouse assessed as body weight loss at 10 mg/kg, ip measured for 30 days; type: organism-based; details: in vivo, 720 h, time 30 day
[30] = Toxicity in human A549 cells xenografted in athymic nude BALB/c nude mouse assessed as morphological changes in heart at 10 mg/kg, ip measured after 30 days by H and E staining based histological analysis; type: organism-based; details: in vivo, 720 h, time 30 day
Tubulin (Homo sapiens) [31] = molecular target: T1, Tubulin (Homo sapiens); assay: Inhibition of tubulin polymerization (unknown origin) by microplate reader analysis; type: protein-complex assay; details: dose 5-0.16 µM, DDE = dose-dependent effect

## C=C(c1cc(OC)c(OC)c(OC)c1)c1ccc(OC)c(O)c1NC(=O)CO
A549 [1]
  Activity: Active
HeLa
  IC50: 20 nM
HCT-8 [2]
  IC50: 40 nM
HCT-8 [3]
  Activity: Dde
MCF7
  Activity: Dde
MGC-803
  Activity: Dde
SMMC-7721
  Activity: Dde
[4]
  IC50: 40 nM
[5]
  IC50: 540 nM
[6]
  selectivity ratio: 4
A549 [7]
  IC50: 20 nM
HCT-8 [8]
  IC50: 70 nM
A2780
  IC50: 40 nM
[9]
  Ratio IC50: 2
Tubulin
  IC50: 580 nM
Tubulin (Homo sapiens) [10]
  inhibition: 16.7%
Tubulin (Homo sapiens) [11]
  inhibition: 78.5%
Tubulin (Homo sapiens) [12]
  Activity: Active
A549 [13]
  Activity: Active
A549 [14]
  Activity: Active
[15]
  Activity: Non-Toxic
A549 [16]
  Activity: 50.36%
A549 [17]
  Activity: Active
A549 [18]
  Activity: Active
A549 [19]
  Activity: Active
A549 [20]
  Activity: Active
A549 [21]
  Activity: Active
[22]
  Activity: Active
[23]
  LD50 at 336 h: 327 mg/kg
[24]
  AUCt: 350.19 h/ng/mL
[25]
  MRT: 40.8 min
[26]
  clearance: 47.6 mL/min/kg
A549 [27]
  Activity: 0.2 g
[28]
  Activity: Non-Toxic
[29]
  Activity: Non-Toxic
[30]
  Activity: Non-Toxic
Tubulin (Homo sapiens) [31]
  inhibition: Dde

From ChEMBL document CHEMBL5154799, “Discovery of a Novel Stilbene Derivative as a Microtubule Targeting Agent Capable of Inducing Cell Ferroptosis” (J Med Chem, 2022)
